Measurements as given in patent publication US9586951B2 (FUJIFILM Corporation, priority 2013, dated 2017).
pIC50: −log10 of the molar value.

Target: T1, ATM (Homo sapiens, UniProt Q13315)
T1 construct: detecting phosphorylation of Chk2 in a human non-small cell lung cancer cell line NCI-H460 (ATCC company); host or cells: NCI-H460 human non-small cell lung cancer cells
Assay: ATM inhibition test (phosphorylation of Chk2 generated by ionizing radiation, AlphaScreen SureFire)
Format: cell-based
Settings: phosphorylated Chk2 in NCI-H460 cells, ionizing radiation 8Gy, 1 hour after test compound treatment; read-out: ATM inhibitory activity
Procedure, shortened: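 NCI-H460 cells treated with compound for 1 hour, then irradiated with 8Gy and incubated 1 hour at 37° C. Phospho-Chk2 measured by AlphaScreen SureFire. Inhibition ratio calculated relative to untreated irradiated and non-irradiated wells.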

T1 sequence (Q13315 whole entry): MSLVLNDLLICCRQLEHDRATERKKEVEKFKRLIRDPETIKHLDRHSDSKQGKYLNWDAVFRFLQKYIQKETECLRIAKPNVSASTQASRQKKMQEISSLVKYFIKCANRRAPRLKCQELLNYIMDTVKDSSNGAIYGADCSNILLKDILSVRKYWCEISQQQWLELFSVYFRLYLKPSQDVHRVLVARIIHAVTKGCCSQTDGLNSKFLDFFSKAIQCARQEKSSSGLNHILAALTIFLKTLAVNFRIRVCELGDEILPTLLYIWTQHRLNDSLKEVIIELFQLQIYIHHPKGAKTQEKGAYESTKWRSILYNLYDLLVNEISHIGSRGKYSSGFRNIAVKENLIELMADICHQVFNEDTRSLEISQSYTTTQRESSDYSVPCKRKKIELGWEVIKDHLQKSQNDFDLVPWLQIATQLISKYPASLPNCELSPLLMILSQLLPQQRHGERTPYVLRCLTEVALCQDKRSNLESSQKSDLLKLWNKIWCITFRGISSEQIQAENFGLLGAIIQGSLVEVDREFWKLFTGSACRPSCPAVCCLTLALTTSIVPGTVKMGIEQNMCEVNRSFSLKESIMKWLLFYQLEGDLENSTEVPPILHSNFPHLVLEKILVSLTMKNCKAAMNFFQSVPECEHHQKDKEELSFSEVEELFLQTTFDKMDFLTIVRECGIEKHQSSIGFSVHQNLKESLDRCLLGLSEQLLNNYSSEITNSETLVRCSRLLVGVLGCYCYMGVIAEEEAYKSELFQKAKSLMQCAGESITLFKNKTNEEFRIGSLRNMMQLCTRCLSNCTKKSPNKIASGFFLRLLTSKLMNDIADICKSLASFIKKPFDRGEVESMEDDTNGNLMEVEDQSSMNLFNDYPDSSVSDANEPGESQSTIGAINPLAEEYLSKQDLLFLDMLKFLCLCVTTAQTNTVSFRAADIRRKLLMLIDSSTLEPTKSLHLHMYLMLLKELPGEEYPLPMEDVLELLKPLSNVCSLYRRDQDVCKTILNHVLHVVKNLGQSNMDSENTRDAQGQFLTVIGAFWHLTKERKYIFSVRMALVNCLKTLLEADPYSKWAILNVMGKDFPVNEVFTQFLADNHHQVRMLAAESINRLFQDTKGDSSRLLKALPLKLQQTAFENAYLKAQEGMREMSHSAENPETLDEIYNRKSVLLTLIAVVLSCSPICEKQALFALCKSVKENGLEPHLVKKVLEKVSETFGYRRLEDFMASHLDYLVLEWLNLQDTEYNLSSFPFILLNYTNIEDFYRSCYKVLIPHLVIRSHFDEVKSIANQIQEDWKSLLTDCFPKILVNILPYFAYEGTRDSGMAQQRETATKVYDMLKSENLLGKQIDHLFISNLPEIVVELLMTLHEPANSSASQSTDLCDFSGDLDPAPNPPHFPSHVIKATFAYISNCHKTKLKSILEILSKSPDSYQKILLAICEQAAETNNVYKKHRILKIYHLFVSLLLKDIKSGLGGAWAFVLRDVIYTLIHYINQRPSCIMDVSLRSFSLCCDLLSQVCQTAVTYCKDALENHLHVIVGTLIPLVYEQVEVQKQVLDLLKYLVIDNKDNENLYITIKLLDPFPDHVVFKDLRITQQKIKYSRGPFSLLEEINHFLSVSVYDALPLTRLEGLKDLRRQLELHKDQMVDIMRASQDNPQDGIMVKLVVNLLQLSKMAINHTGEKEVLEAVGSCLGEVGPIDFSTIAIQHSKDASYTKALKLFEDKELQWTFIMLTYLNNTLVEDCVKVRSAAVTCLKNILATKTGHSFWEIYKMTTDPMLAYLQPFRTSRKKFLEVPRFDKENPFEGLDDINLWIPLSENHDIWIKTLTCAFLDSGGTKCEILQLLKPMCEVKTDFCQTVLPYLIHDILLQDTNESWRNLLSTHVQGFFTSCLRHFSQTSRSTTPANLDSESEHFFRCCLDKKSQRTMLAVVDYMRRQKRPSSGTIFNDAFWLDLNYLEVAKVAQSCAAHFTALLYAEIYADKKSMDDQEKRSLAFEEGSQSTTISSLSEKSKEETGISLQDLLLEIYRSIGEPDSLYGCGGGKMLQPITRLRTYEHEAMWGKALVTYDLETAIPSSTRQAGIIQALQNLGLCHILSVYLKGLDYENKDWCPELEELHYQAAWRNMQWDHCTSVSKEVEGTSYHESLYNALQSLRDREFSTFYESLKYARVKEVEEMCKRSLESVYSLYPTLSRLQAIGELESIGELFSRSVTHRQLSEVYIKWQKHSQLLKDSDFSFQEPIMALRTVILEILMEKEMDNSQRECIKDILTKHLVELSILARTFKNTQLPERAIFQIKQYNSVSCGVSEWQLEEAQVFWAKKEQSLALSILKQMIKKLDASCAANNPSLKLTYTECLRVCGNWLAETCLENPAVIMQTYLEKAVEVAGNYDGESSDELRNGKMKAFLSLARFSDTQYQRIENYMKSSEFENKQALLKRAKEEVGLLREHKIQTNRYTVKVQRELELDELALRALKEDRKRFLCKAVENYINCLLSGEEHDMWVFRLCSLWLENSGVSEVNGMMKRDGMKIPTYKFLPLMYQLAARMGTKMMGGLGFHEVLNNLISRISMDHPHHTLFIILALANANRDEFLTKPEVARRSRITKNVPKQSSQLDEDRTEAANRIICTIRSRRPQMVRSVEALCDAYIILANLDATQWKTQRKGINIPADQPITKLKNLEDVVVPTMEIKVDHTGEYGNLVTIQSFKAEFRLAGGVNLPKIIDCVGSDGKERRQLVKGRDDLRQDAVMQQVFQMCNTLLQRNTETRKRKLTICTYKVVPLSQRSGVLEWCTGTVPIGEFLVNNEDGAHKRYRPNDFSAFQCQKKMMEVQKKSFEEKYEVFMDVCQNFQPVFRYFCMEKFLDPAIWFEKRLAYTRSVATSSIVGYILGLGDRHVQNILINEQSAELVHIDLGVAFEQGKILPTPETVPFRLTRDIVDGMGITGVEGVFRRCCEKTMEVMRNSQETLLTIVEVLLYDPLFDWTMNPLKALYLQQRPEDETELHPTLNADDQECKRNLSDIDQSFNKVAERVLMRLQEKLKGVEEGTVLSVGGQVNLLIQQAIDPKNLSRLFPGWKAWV

| Structure (SMILES) | pIC50 |
| --- | --- |
| CC(=O)Nc1cccc(CNc2ccc3c(c2)Cc2cccc(-c4cc(N5CCOCC5)cc(=O)[nH]4)c2O3)n1 [Example 2-2-73, N-(6-(((5-(4-Morpholino-6-oxo-1,6-dihydropyridin-2-yl)-9H-xanthen-2-yl)amino)methyl)pyridin-2-yl) acetamide] | 5.70 to 6.30 |
| O=c1cc(N2CCOCC2)cc(-c2cccc3c2Oc2ccc(NCc4ncccn4)cc2C3)[nH]1 [Example 2-3-4, 4-Morpholino-6-(7-((pyrimidin-2-ylmethyl)amino)-9H-xanthen-4-yl) pyridin-2(1H)-one] | 5.70 to 6.30 |
| CN1CCC(Nc2ccc3c(c2)Cc2cccc(-c4cc(N5CCOCC5)cc(=O)[nH]4)c2O3)CC1 [Example 2-3-7, 6-(7-((1-Methylpiperidin-4-yl)amino)-9H-xanthen-4-yl)-4-morpholino pyridin-2(1H)-one] | 5.70 to 6.30 |
| CC(C)(C)OC(=O)N1CCC(Nc2ccc3c(c2)Cc2cccc(-c4cc(N5CCOCC5)cc(=O)[nH]4)c2O3)CC1 [Example 2-3-12, tert-Butyl 4-((5-(4-morpholino-6-oxo-1,6-dihydropyridin-2-yl)-9H-xanthen-2-yl)amino) piperidine-1-carboxylate] | 6.30 to 7.00 |
| O=c1cc(N2CCOCC2)cc(-c2cccc3c2Oc2ccc(NCc4cccc(C(F)(F)F)c4)cc2C3)[nH]1 [Example 2-3-14, 4-Morpholino-6-(7-((3-(trifluoromethyl)benzyl)amino)-9H-xanthen-4-yl) pyridin-2(1H)-one] | 6.30 to 7.00 |
| N#Cc1cccc(CNc2ccc3c(c2)Cc2cccc(-c4cc(N5CCOCC5)cc(=O)[nH]4)c2O3)c1 [Example 2-3-15, 3-(((5-(4-Morpholino-6-oxo-1,6-dihydropyridin-2-yl)-9H-xanthen-2-yl)amino)methyl) benzonitrile] | 6.30 to 7.00 |
| CCNc1cncc(CNc2ccc3c(c2)Cc2cccc(-c4cc(N5CCOCC5)cc(=O)[nH]4)c2O3)c1 [Example 2-6-1, 6-(7-(((5-(ethylamino)pyridin-3-yl)methyl)amino)-9H-xanthen-4-yl)-4-morpholinopyridin-2(1H)-one] | 6.30 to 7.00 |
| CCNc1cccc(CNc2ccc3c(c2)Cc2cccc(-c4cc(N5CCOCC5)cc(=O)[nH]4)c2O3)n1 [Example 2-6-2, 6-(7-(((6-(Ethylamino)pyridin-2-yl)methyl)amino)-9H-xanthen-4-yl)-4-morpholinopyridin-2(1H)-one] | 6.30 to 7.00 |
| CN1CCCC(Nc2ccc3c(c2)Cc2cccc(-c4cc(N5CCOCC5)cc(=O)[nH]4)c2O3)C1 (stereo not shown) [Example 2-7-1, 6-(7-((1-methylpiperidin-3-yl)amino)-9H-xanthen-4-yl)-4-morpholinopyridin-2(1H)-one] | 5.70 to 6.30 |
| O=c1cc(N2CCOCC2)cc(-c2cccc3c2Oc2ccc(NCc4cncc(-c5cn[nH]c5)c4)cc2C3)[nH]1 [Example 2-8-2, 6-(7-(((5-(1H-pyrazol-4-yl)pyridin-3-yl)methyl)amino)-9H-xanthen-4-yl)-4-morpholinopyridin-2(1H)-one] | 6.30 to 7.00 |
| O=c1cc(N2CCOCC2)cc(-c2cccc3c2Oc2ccc(NC4CCN(Cc5cccnc5)CC4)cc2C3)[nH]1 [Example 2-9-2, 4-Morpholino-6-(7-((1-(pyridin-3-ylmethyl)piperidin-4-yl)amino)-9H-xanthen-4-yl)pyridin-2(1H)-one] | 6.30 to 7.00 |
| CN(C)[C@H]1CC[C@H](N(C)c2ccc3c(c2)Cc2cccc(-c4cc(N5CCOCC5)cc(=O)[nH]4)c2O3)CC1 [Example 2-10, 6-(7-(((Trans)-4-(dimethylamino)cyclohexyl)(methyl)amino)-9H-xanthen-4-yl)-4-morpholinopyridin-2(1H)-one] | 5.70 to 6.30 |
| O=c1cc(N2CCOCC2)cc(-c2cccc3c2Oc2ccc(NCCc4cccnc4)cc2C3)[nH]1 [Example 2-12, 4-morpholino-6-(7-((2-(pyridin-3-yl)ethyl)amino)-9H-xanthen-4-yl)pyridin-2(1H)-one] | 6.30 to 7.00 |

Other lines, results leading:

| pIC50 | Structure (SMILES) |
| --- | --- |
| > 7.00 | O=c1cc(N2CCOCC2)cc(-c2cccc3c2Oc2ccc(NCc4cncc(C5CCCC5)c4)cc2C3)[nH]1 [Example 2-2-66, 6-(7-(((5-Cyclopentylpyridin-3-yl)methyl)amino)-9H-xanthen-4-yl)-4-morpholino pyridin-2(1H)-one] |
| 6.30 to 7.00 | O=C1CCCN1c1cncc(CNc2ccc3c(c2)Cc2cccc(-c4cc(N5CCOCC5)cc(=O)[nH]4)c2O3)c1 [Example 2-2-67, 4-Morpholino-6-(7-(((5-(2-oxopyrrolidin-1-yl)pyridin-3-yl)methyl)amino)-9H-xanthen-4-yl)pyridin-2(1H)-one] |
| 6.30 to 7.00 | O=c1cc(N2CCOCC2)cc(-c2cccc3c2Oc2ccc(NCc4cccc(C5CC5)n4)cc2C3)[nH]1 [Example 2-2-68, 6-(7-(((6-Cyclopropylpyridin-2-yl)methyl)amino)-9H-xanthen-4-yl)-4-morpholino pyridin-2(1H)-one] |
| 6.30 to 7.00 | O=C1CCN1c1cncc(CNc2ccc3c(c2)Cc2cccc(-c4cc(N5CCOCC5)cc(=O)[nH]4)c2O3)c1 [Example 2-2-70, 4-Morpholino-6-(7-(((5-(2-oxoazetidin-1-yl)pyridin-3-yl)methyl)amino)-9H-xanthen-4-yl)pyridin-2(1H)-one] |
| 6.30 to 7.00 | CC(C)Nc1cncc(CNc2ccc3c(c2)Cc2cccc(-c4cc(N5CCOCC5)cc(=O)[nH]4)c2O3)c1 [Example 2-2-75, 6-(7-(((5-(Isopropylamino)pyridin-3-yl)methyl)amino)-9H-xanthen-4-yl)-4-morpholino pyridin-2(1H)-one] |
| > 7.00 | CN(C)c1cnc(CN(Cc2cnc(N(C)C)cn2)c2ccc3c(c2)Cc2cccc(-c4cc(N5CCOCC5)cc(=O)[nH]4)c2O3)cn1 [Example 2-2-76, 6-(7-(bis((5-(dimethylamino)pyrazin-2-yl)methyl)amino)-9H-xanthen-4-yl)-4-morpholinopyridin-2(1H)-one] |
| 6.30 to 7.00 | O=c1cc(N2CCOCC2)cc(-c2cccc3c2Oc2ccc(NCc4cccnc4)cc2C3)[nH]1 [Example 2-3-1, 4-Morpholino-6-(7-((pyridin-3-ylmethyl)amino)-9H-xanthen-4-yl)pyridin-2(1H)-one] |
| 6.30 to 7.00 | O=c1cc(N2CCOCC2)cc(-c2cccc3c2Oc2ccc(NCc4cncnc4)cc2C3)[nH]1 [Example 2-3-2, 4-Morpholino-6-(7-((pyrimidin-5-ylmethyl)amino)-9H-xanthen-4-yl) pyridin-2(1H)-one] |
| 6.30 to 7.00 | O=c1cc(N2CCOCC2)cc(-c2cccc3c2Oc2ccc(NCc4cnccn4)cc2C3)[nH]1 [Example 2-3-5, 4-Morpholino-6-(7-((pyrazin-2-ylmethyl)amino)-9H-xanthen-4-yl)pyridin-2(1H)-one] |
| 6.30 to 7.00 | COc1cncc(CNc2ccc3c(c2)Cc2cccc(-c4cc(N5CCOCC5)cc(=O)[nH]4)c2O3)c1 [Example 2-3-8, 6-(7-(((5-Methoxypyridin-3-yl)methyl)amino)-9H-xanthen-4-yl)-4-morpholino pyridin-2(1H)-one] |
| 6.30 to 7.00 | CC(C)(C)OC(=O)N1CCCC(Nc2ccc3c(c2)Cc2cccc(-c4cc(N5CCOCC5)cc(=O)[nH]4)c2O3)CC1 (stereo not shown) [Example 2-3-11, tert-Butyl 4-((5-(4-morpholino-6-oxo-1,6-dihydropyridin-2-yl)-9H-xanthen-2-yl)amino) azepane-1-carboxylate] |
| > 7.00 | Cn1cc(-c2cc(CNc3ccc4c(c3)Cc3cccc(-c5cc(N6CCOCC6)cc(=O)[nH]5)c3O4)ccn2)cn1 [Example 2-4, 6-(7-(((2-(1-methyl-1H-pyrazol-4-yl)pyridin-4-yl)methyl)amino)-9H-xanthen-4-yl)-4-morpholinopyridin-2(1H)-one] |
